The target of the test is T1, human TLR7 (Homo sapiens, UniProt Q9NYK1).
T1 construct: host or cells: HEK-Blue hTLR7 cells (HEK293-derived reporter line; that the line is stably transfected with the human TLR7 gene is own knowledge of the vendor's product)
T1 sequence (Q9NYK1 27-1049): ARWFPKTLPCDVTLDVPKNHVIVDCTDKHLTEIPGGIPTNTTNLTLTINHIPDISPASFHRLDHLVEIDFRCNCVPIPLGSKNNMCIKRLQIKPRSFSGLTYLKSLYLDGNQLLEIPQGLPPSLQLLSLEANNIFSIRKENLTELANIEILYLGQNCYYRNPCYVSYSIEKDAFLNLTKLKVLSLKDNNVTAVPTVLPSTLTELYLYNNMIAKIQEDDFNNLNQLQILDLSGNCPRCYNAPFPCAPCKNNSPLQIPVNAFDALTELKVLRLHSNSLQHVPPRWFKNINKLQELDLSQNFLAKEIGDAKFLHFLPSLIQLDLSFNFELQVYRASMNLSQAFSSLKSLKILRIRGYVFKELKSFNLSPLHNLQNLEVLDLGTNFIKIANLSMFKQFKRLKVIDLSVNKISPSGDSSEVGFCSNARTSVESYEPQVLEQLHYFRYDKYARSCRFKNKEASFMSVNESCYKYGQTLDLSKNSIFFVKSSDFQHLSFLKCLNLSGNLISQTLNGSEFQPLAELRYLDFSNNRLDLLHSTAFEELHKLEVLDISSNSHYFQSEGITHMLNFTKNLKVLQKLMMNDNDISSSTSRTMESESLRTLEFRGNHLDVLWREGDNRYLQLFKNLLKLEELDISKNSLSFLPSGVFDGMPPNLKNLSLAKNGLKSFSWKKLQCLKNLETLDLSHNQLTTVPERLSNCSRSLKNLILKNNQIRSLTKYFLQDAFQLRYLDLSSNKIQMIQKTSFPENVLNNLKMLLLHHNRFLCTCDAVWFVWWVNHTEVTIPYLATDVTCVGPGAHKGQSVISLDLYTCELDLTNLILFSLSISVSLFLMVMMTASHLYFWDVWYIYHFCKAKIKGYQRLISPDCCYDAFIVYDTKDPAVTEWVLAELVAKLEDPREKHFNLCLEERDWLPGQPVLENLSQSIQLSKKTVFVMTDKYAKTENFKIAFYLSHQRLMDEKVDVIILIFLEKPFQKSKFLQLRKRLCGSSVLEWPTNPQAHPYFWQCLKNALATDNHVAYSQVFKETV
Description: Agonistic activity of compounds on HEK-Blue hTLR7 cells (QUANTI-Blue reporter, OD620). The format is cell-based. Particulars: for EC50 / Emax: HEK-Blue hTLR7 cells; for EC50: 20 h incubation; for Emax: OD620 at which the activation effect reached the maximum; for activation effect on human TLR7: summary in words. How it is done:
• 1. HEK-Blue hTLR7 cells (Invivogen) were cultured in DMEM medium (Hyclone) containing 10% FBS heat-inactivated fetal bovine serum (Corning). On the day of detection, the cell state was observed under a microscope, the cells were collected and resuspended, and the cell concentration was adjusted after counting, 50 µL per well, the total amount of cells was 2×10^4, and the cells were inoculated in a 96-well plate. • 2. After the cells adhered to the wall overnight, 50 µL of the test compound at different concentrations was added into the well plate, so that the final concentrations were 100 µM, 33.3 µM, 11.11 µM, 3.70 µM, 1.23 µM, 0.41 µM, 0.14 µM, 0.05 µM, 0 µM, and the final concentration of DMSO was 1%. The compound was incubated with the cells in a 37°C, 5% CO2 incubator for 20 h. • 3. After the incubation, observation under microscope was performed to determine the maximum signal well, the states of the cells with the highest and lowest concentrations of the compound, and whether the compound will crystalize at high concentration. 10 µL of cell culture supernatant was taken and transferred to a new 96-well transparent plate, 90 µL of QUANTI-Blue (Invivogen) detection reagent was added to each well, and incubated at 37°C for 3 h, and OD620 was read with a multifunctional microplate reader (BMG LABTECH). • 4. EC50 was calculated by fitting with Graphpad Prism software log(agonist) vs. response - Variable slope, and Emax was the OD620 at which the activation effect of the test compound reached the maximum.

We go through 18 compounds from patent publication EP4458830A1, “TRICYCLIC COMPOUND, METHOD FOR PREPARING SAME, AND USE THEREOF” (Sichuan Kelun-Biotech Biopharmaceutical Co., Ltd., priority 2021, dated 2023).

In the case of `COCCc1nc2c(N)nc3ccsc3c2n1CCCCN` [Compound 4, 1-(4-aminobutyl)-2-(2-methoxyethyl)-1H-imidazo[4,5-d]thieno[3,2-b]pyridine-4-amine], the response was half-maximal at 2.41 µM (EC50), the Emax is reported as 1.74 OD620 and the “activation effect on human TLR7” value is given as “strong activation effect”.

For `CCOCc1nc2c(N)nc3ccsc3c2n1CCCCN` [Compound 5, 1-(4-aminobutyl)-2-(2-ethoxymethyl)-1H-imidazo[4,5-d] thieno[3,2-b]pyridine-4-amine], the midpoint of the response, the EC50, lay at 3.25 µM; the Emax worked out at 1.46 OD620; the “activation effect on human TLR7” value is “strong activation effect”.

For `CCCCc1nc2c(N)nc3cc(C4=CCN(C)CC4)sc3c2[nH]1` [Compound 8, 2-butyl-7-(1-methyl-1,2,3,6-tetrahydropyridin-4-yl)-1H-imidazo [4,5-d]thieno[3,2-b]pyridine-4-amine], the midpoint of the response, the EC50, lay at 2.5 µM; the Emax stood at 0.56 OD620; the “activation effect on human TLR7” value is “strong activation effect”.

For `CCCCc1nc2c(N)nc3cc(C)sc3c2n1CC1CCN(CCOCCOCCN)CC1` [Compound 15, 1-((1-(2-(2-(2-aminoethoxy)ethoxy)ethyl)piperidin-4-yl)methyl)-2-butyl-7-methyl-1H-imidazo[4,5-d]thieno[3,2-b]pyridine-4-amine], a half-maximal response (EC50) required 1.42 µM, the Emax was found to be 2.40 OD620 and the “activation effect on human TLR7” value was “strong activation effect”.

For the compound `CCCCc1nc2c(N)nc3cc(C)sc3c2n1CC1CCN(CCOCCOCCOCCOCCOCCOCCOC)CC1` [Compound 16, 1-((1-(2,5,8,11,14,17,20-heptaoxadocosan-22-yl)piperidin-4-yl)methyl)-2-butyl-7-methyl-1H-imidazo[4,5-d]thieno[3,2-b]pyridine-4-amine], the EC50 turned out to be 1.69 µM, the Emax stood at 2.18 OD620 and the “activation effect on human TLR7” value was “strong activation effect”.

As to `CCCCc1nc2c(N)nc3cc(C)sc3c2n1CC1CCN(C(=O)CCOCCOCCN)CC1` [Compound 17, 1-(4-((4-amino-2-butyl-7-methyl-1H-imidazo[4,5-d]thieno[3,2-b]pyridin-1-yl)methyl)piperidin-1-yl)-3-(2-(2-aminoethoxy)ethoxy)propan-1-one], a half-maximal response (EC50) required 1.16 µM, the Emax was determined as 2.23 OD620 and the “activation effect on human TLR7” value is listed as “strong activation effect”.

Regarding `CCCCc1nc2c(N)nc3ccsc3c2n1CC1CCNCC1` [Compound 25, 2-butyl-1-(piperidin-4-ylmethyl)-1H-imidazo[4,5-d]thieno[3,2-b] pyridine-4-amine], a half-maximal response (EC50) required 0.14 µM, the Emax is on record as 2.08 OD620 and the “activation effect on human TLR7” value was “strong activation effect”.

Turning to `CCCCc1nc2c(N)nc3cc(C)sc3c2n1CC1CCOCC1` [Compound 26, 2-butyl-7-methyl-1-((tetrahydro-2H-pyran-4-yl)methyl)-1H-imidazo[4,5-d]thieno[3,2-b]pyridine-4-amine], the 50% effective concentration (EC50) came out at 0.05 µM, the Emax amounted to 1.78 OD620 and the “activation effect on human TLR7” value is “strong activation effect”.

For `CCCCc1nc2c(N)nc3cc(C)sc3c2n1CC1CCN(C)CC1` [Compound 28, 2-butyl-7-methyl-1-((1-methylpiperidin-4-yl)methyl)-1H-imidazo[4,5-d]thieno[3,2-b]pyridine-4-amine], it took 0.2 µM to reach a half-maximal effect (EC50), the Emax amounted to 1.39 OD620 and the “activation effect on human TLR7” value is given as “strong activation effect”.

`CCCCc1nc2c(N)nc3cc(C4CCN(C)CC4)sc3c2n1C` [Compound 32, 2-butyl-1-methyl-7-(1-methylpiperidin-4-yl)-1H-imidazo[4,5-d] thieno[3,2-b]pyridine-4-amine]: the response was half-maximal at 1.26 µM (EC50), the Emax was determined as 0.91 OD620 and the “activation effect on human TLR7” value is given as “strong activation effect”.

As to `CCCCc1nc2c(N)nc3cc(C4CCN(C)CC4)sc3c2n1CC1CCOCC1` [Compound 34, 2-butyl-7-(1-methylpiperidin-4-yl)-1-((tetrahydro-2H-pyran-4-yl)methyl)-1H-imidazo[4,5-d]thieno[3,2-b]pyridine-4-amine], the response was half-maximal at 0.083 µM (EC50), the Emax is given as 1.21 OD620 and the “activation effect on human TLR7” value is on record as “strong activation effect”.

Turning to `CCCCc1nc2c(N)nc3cc(C4CCN(C)CC4)sc3c2n1CC1CCN(C)CC1` [Compound 38, 2-butyl-7-(1-methylpiperidin-4-yl)-1-((1-methylpiperidin-4-yl)methyl)-1H-imidazo[4,5-d]thieno[3,2-b]pyridine-4-amine], the EC50 came out at 1.3 µM, the Emax is 0.49 OD620 and the “activation effect on human TLR7” value was “strong activation effect”.

Turning to `CCCCc1nc2c(N)nc3cc(C4CCOCC4)sc3c2n1CC1CCN(C)CC1` [Compound 40, 2-butyl-1-((1-methylpiperidin-4-yl)methyl)-7-(tetrahydro-2H-pyran-4-yl)-1H-imidazo[4,5-d]thieno[3,2-b]pyridine-4-amine], the EC50 was found to be 0.58 µM, the Emax came to 1.83 OD620 and the “activation effect on human TLR7” value was “strong activation effect”.

As for `CCCCc1nc2c(N)nc3cc(C4CCNCC4)sc3c2n1CC1CCN(CCOC)CC1` [Compound 41, 2-butyl-7-(hexahydropyridin-4-yl)-1-{[1-(2-methoxyethyl)hexahydropyridin-4-yl]methyl}thieno[3,2-b]imidazo[4,5-d]pyridine-4-amine], the EC50 came out at 5.05 µM, the Emax turned out to be 0.84 OD620 and the “activation effect on human TLR7” value is “strong activation effect”.

As for `CCCCc1nc2c(N)nc3cc(C4CCN(C)CC4)sc3c2n1CC1CCN(CCOC)CC1` [Compound 42, 2-butyl-1-{[1-(2-methoxyethyl)hexahydropyridin-4-yl]methyl}-7-(1-methylhexahydropyridin-4-yl)thieno[3,2-b]imidazo[4,5-d]pyridine-4-amine], the EC50 is 1.43 µM, the Emax was determined as 0.65 OD620 and the “activation effect on human TLR7” value is reported as “strong activation effect”.

As to `COCCc1nc2c(N)nc3ccsc3c2n1CC1CCNCC1` [Compound 55, 1-(hexahydropyridin-4-ylmethyl)-2-(2-methoxyethyl) thieno[3,2-b]imidazo[4,5-d]pyridine-4-amine], the EC50 was determined as 1.48 µM, the Emax amounted to 1.44 OD620 and the “activation effect on human TLR7” value is “strong activation effect”.

For `COCCc1nc2c(N)nc3ccsc3c2n1CC1CCN(C)CC1` [Compound 56, 2-(2-methoxyethyl)-1-[(1-methylhexahydropyridin-4-yl)methyl] thieno[3,2-b]imidazo[4,5-d]pyridine-4-amine], it took 0.46 µM to reach a half-maximal effect (EC50), the Emax is listed as 1.41 OD620 and the “activation effect on human TLR7” value is given as “strong activation effect”.

As to `CCCCc1nc2c(N)nc3cc(C4CCN(C(C)=O)CC4)sc3c2n1CC1CCOCC1` [Compound 59, 1-{4-[4-amino-2-butyl-1-(3,4,5,6-tetrahydro-2H-pyran-4-ylmethyl)thieno[3,2-b]imidazo[4,5-d]pyridin-7-yl]hexahydropyridin-1-yl}ethyl-1-one], a half-maximal effect (EC50) was put at 0.04 µM, the Emax is 1.45 OD620 and the “activation effect on human TLR7” value is recorded as “strong activation effect”.

As usually defined, the EC50 is the concentration that produces a half-maximal response. A high value points to a less potent agent.
